Laboratory results from patent US10065990B2, “Cyclic peptide compound, and preparation method, pharmaceutical composition and use thereof” (HANGZHOU GUANYU BIO-MEDICAL CO., LTD, priority 2013, dated 2018).
Read-outs that look alike come from different tables or passages of the source.

What was measured:
[1] = target: HDAC1 (Homo sapiens, UniProt Q13547); experiment: HDAC biochemical activity measurement (fluorescent substrate deacetylation);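 also: fluorogenic acetyl-lysine substrate (20 µM) deacetylated by HDAC1, then developer releases fluorophore read at 360 nm excitation and 460 nm emission, inhibitor incubated 30 min at 37 °C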
Sequence of HDAC1 (Q13547 whole entry, species assumed): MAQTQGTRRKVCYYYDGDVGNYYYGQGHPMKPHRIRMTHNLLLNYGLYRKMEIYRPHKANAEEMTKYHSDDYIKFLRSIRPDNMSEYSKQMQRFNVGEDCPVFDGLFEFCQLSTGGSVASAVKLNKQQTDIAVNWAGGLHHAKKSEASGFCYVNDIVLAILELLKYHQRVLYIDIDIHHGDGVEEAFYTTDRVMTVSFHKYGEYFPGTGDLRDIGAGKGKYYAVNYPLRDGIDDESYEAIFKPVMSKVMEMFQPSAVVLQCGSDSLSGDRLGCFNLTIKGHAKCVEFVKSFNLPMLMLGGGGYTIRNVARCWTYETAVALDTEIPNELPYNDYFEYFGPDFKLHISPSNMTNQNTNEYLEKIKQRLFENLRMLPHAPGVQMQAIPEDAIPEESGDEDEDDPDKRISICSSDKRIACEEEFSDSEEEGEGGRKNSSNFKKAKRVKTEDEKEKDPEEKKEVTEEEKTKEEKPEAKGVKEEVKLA

[2] = target: HDAC2 (Homo sapiens, UniProt Q92769); experiment: as above; details: 37° C. 30 minutes;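 also: HDAC2 enzyme with an acetyl-lysine fluorescent substrate, then developer added, fluorescence read at excitation 360 nm and emission 460 nm, inhibition measured across several compound concentrations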
Sequence of HDAC2 (Q92769 whole entry, species assumed): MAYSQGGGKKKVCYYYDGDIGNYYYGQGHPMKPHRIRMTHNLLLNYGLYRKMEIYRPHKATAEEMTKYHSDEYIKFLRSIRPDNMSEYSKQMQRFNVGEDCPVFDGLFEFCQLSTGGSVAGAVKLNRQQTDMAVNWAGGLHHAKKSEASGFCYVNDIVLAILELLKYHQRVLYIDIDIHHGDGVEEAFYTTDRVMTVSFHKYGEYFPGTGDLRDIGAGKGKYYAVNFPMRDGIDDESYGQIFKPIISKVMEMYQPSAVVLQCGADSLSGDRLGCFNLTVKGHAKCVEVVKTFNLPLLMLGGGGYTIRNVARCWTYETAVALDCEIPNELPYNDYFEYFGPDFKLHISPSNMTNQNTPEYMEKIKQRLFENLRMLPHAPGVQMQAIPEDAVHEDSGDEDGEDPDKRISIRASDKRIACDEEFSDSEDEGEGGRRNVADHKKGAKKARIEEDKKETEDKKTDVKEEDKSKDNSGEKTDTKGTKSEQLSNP

[3] = tested on: A549 (human lung cancer cells); experiment: MTT cancer cell growth inhibition; assay type: cell-based; details: Homo sapiens, A549, 72 h, MTT, 72 hours incubation, read-out: GI50 A54
In short: (§1)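 Absorbance at 570 nm of DMSO-dissolved formazan, formed during a 4 h MTT incubation, served as the viability measure. Cells had been exposed 72 h to drug at 10^−5–10^−10 M final; GI50 was calculated from these readings.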

[4] = tested on: BGC-823 (human gastric cancer cells); experiment: MTT cancer cell growth inhibition; assay type: cell-based; details: Homo sapiens, BGC-823, 72 h, MTT, 72 hours incubation, read-out: GI50 BG
In short: as §1

[5] = tested on: Bel-7402 (human hepatoma cells); experiment: MTT cancer cell growth inhibition; assay type: cell-based; details: Homo sapiens, Bel-7402, 72 h, MTT, 72 hours incubation, Bel-7402 cells; read-out: GI50 Bel-7402
In short: as §1

[6] = tested on: DU145 (human prostate cancer cells); experiment: MTT cancer cell growth inhibition; assay type: cell-based; details: Homo sapiens, DU-145, 72 h, MTT, 72 hours incubation, read-out: GI50 Du1
In short: as §1

[7] = tested on: H1975 (non-small cell lung adenocarcinoma); experiment: MTT cancer cell growth inhibition; assay type: cell-based; details: Homo sapiens, NCI-H1975, 72 h, MTT, 72 hours incubation, H1975 cells; read-out: GI50 H1975
In short: as §1

[8] = tested on: HCC827 (human non-small cell lung cancer cells); experiment: MTT cancer cell growth inhibition; assay type: cell-based; details: Homo sapiens, HCC827, 72 h, MTT, 72 hours incubation, HCC827 cells; read-out: GI50 HCC827
In short: as §1

[9] = tested on: HT1080 (human fibrosarcoma cells); experiment: MTT cancer cell growth inhibition; assay type: cell-based; details: Homo sapiens, HT-1080, 72 h, MTT, 72 hours incubation, read-out: GI50 HT1
In short: as §1

[10] = tested on: Hela (human cervical cancer cells); experiment: MTT cancer cell growth inhibition; assay type: cell-based; details: Homo sapiens, HeLa, 72 h, MTT, 72 hours incubation, read-out: GI50 Hela
In short: as §1

[11] = tested on: Huh-7 (human hepatoma cells); experiment: MTT cancer cell growth inhibition; assay type: cell-based; details: Homo sapiens, Huh-7, 72 h, MTT, 72 hours incubation, Huh-7 cells; read-out: GI50 Huh-7
In short: as §1

[12] = tested on: K562 (human leukemia cells); experiment: MTT cancer cell growth inhibition; assay type: cell-based; details: Homo sapiens, K562, 72 h, MTT, 72 hours incubation, K562 cells; read-out: GI50 K562
In short: as §1

[13] = tested on: KBM-5 (human chronic myelogenous leukemia); experiment: MTT cancer cell growth inhibition; assay type: cell-based; details: Homo sapiens, KBM5, 72 h, MTT, 72 hours incubation, KBM-5 cells; read-out: GI50 KBM-5
In short: as §1

[14] = tested on: KBM5-T315I (human chronic myelogenous leukemia); experiment: MTT cancer cell growth inhibition; assay type: cell-based; details: Homo sapiens, 72 h, MTT, 72 hours incubation, KBM5-T315I cells; read-out: GI50 KBM5-T315I
In short: as §1

[15] = tested on: MCF-7 (human breast cancer cells); experiment: MTT cancer cell growth inhibition; assay type: cell-based; details: Homo sapiens, MCF7, 72 h, 72 hours incubation, read-out: GI50 MCF
In short: as §1

[16] = tested on: MDA-MB-231 (breast cancer cells); experiment: MTT cancer cell growth inhibition; assay type: cell-based; details: Homo sapiens, MDA-MB-231, 72 h, read-out: GI50 MDA-MB-231, MTT, 72 hours incubation, MDA-MB-231 cells
In short: as §1

[17] = tested on: MOLT-4 (human acute lymphoblastic leukemia cells); experiment: MTT cancer cell growth inhibition; assay type: cell-based; details: Homo sapiens, MOLT-4, 72 h, MTT, 72 hours incubation, read-out: GI50 Mol
In short: as §1

[18] = tested on: N-87 (human gastric cancer cells); experiment: MTT cancer cell growth inhibition; assay type: cell-based; details: Homo sapiens, 72 h, MTT, 72 hours incubation, N-87 cells; read-out: GI50 N-87
In short: as §1

[19] = tested on: PANC-1 (Pac-1, human pancreatic cancer cells); experiment: MTT cancer cell growth inhibition; assay type: cell-based; details: Homo sapiens, PANC-1, 72 h, MTT, 72 hours incubation, read-out: GI50 PAN
In short: as §1

[20] = tested on: SGC-7901 (human gastric cancer cells); experiment: MTT cancer cell growth inhibition; assay type: cell-based; details: Homo sapiens, SGC-7901, 72 h, MTT, 72 hours incubation, SGC-7901 cells; read-out: GI50 SGC-7901
In short: as §1

[21] = tested on: U937 (human leukemia cells); experiment: MTT cancer cell growth inhibition; assay type: cell-based; details: Homo sapiens, U-937, 72 h, MTT, 72 hours incubation, read-out: GI50 U93
In short: as §1

[22] = tested on: lncap (prostate cancer cells); experiment: MTT cancer cell growth inhibition; assay type: cell-based; details: Homo sapiens, LNCaP, 72 h, MTT, 72 hours incubation, read-out: GI50 lnca
In short: as §1

[23] = target: HDAC3 (Homo sapiens, UniProt O15379); experiment: HDAC biochemical activity measurement (fluorescent substrate deacetylation);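 also: fluorogenic acetyl-lysine substrate (20 µM) deacetylated by HDAC3, then developer added for 15 min at room temperature, release of fluorophore read at excitation 360 nm, emission 460 nm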
Sequence of HDAC3 (O15379 whole entry, species assumed): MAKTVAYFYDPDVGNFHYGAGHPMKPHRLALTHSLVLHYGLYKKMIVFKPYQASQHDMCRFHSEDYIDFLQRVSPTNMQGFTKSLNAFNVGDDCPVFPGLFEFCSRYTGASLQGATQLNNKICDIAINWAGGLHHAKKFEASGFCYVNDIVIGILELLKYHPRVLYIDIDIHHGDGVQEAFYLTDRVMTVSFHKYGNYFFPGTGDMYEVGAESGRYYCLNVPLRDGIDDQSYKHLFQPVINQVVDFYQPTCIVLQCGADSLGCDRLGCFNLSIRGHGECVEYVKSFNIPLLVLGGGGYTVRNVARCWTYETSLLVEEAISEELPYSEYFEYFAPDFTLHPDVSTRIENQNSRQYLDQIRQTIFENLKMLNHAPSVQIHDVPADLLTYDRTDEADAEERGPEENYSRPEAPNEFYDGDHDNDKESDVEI
Sequence of HDAC3 (Q9Y618 395-489 partner limits assumed, species assumed): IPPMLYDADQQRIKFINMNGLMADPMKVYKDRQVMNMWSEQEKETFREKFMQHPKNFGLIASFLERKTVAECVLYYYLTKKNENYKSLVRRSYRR

[24] = HDAC1, 37° C. 30 minutes, read-out: IC50 HDAC1

IC50 [1, 24] [nM] | IC50 [2] [nM] | GI50 ([3]; A549 cells) [nM] | GI50 ([4]; BGC-823 cells) [nM] | GI50 [5] [nM] | GI50 ([6]; DU145 cells) [nM] | GI50 [7] [nM] | GI50 [8] [nM] | GI50 ([9]; HT1080 cells) [nM] | GI50 ([10]; Hela cells) [nM] | GI50 [11] [nM] | GI50 [12] [nM] | GI50 [13] [nM] | GI50 [14] [nM] | GI50 ([15]; MCF-7 cells) [nM] | GI50 [16] [nM] | GI50 ([17]; MOLT-4 cells) [nM] | GI50 [18] [nM] | GI50 [20] [nM] | IC50 [23] [nM] | SMILES | also measured
72 | 31 | 30 | 20 | 96 | 60 | 31 | 28 | 80 | 50 | 75 | 32 | 28 | 31 | 60 | 57 | 80 | 28 | 83 | 36 | C/C=C1\NC(=O)c2nc(ccc2SC)CNC(=O)C[C@@H](/C=C/CCSC(=O)CCCCC)OC(=O)[C@H](C(C)C)NC1=O [Compound 153] | GI50 ([19]; PANC-1 cells): 20 nM; GI50 ([21]; U937 cells): 30 nM; GI50 ([22]; lncap cells): 50 nM
84 | 32 | 50 | 30 | 41 | 50 | 57 | 46 | 10 | 20 | 11 | 13 | 15 | 96 | 80 | 16 | 20 | 31 | 26 | 26 | C/C=C1\NC(=O)c2nc(ccc2SCCC)CNC(=O)C[C@@H](/C=C/CCSC(=O)CCCCCCC)OC(=O)[C@H](CC)NC1=O [Compound 174] | GI50 ([19]; PANC-1 cells): 100 nM; GI50 ([21]; U937 cells): 70 nM; GI50 ([22]; lncap cells): 30 nM
22 | 41 | – | – | 52 | – | 37 | 52 | – | – | 35 | 35 | 91 | 47 | – | 35 | – | 43 | 57 | – | C/C=C1\NC(=O)c2cc(F)cc(n2)CNC(=O)C[C@@H](/C=C/CCSC(=O)CC)OC(=O)[C@H](C(C)C)NC1=O [Compound 46] | IC50 ([1]; Table 3, column C, read-out: IC50 HDAC1, C (six-membered ring with substituents)): 22 nM; GI50 [3]: 50 nM; GI50 [4]: 40 nM; GI50 [6]: 30 nM; GI50 [9]: 50 nM; GI50 [10]: 90 nM; GI50 [15]: 40 nM; GI50 [17]: 30 nM; GI50 [19]: 50 nM; GI50 [21]: 30 nM; GI50 [22]: 30 nM; IC50 ([23]; read-out: IC50 HDAC3, HDAC3, 37° C. 30 minutes): 25 nM
51 | 29 | – | – | 18 | – | 31 | 78 | – | – | 58 | 32 | 8 | 31 | – | 41 | – | 31 | 18 | 26 | C/C=C1\NC(=O)c2cccc(n2)CNC(=O)C[C@@H](/C=C/CCS)OC(=O)[C@@H](C)NC1=O [Compound 145] | GI50 [3]: 70 nM; GI50 [4]: 60 nM; GI50 [6]: 60 nM; GI50 [9]: 100 nM; GI50 [10]: 40 nM; GI50 [15]: 60 nM; GI50 [17]: 100 nM; GI50 [19]: 60 nM; GI50 [21]: 70 nM; GI50 [22]: 40 nM
68 | 35 | 50 | 70 | 38 | 10 | 71 | 23 | 40 | 50 | 53 | 46 | 33 | 68 | 10 | 65 | 20 | 39 | 28 | 18 | C/C=C1\NC(=O)c2nc(ccc2SC)CNC(=O)C[C@@H](/C=C/CCSC(=O)CCCCCCC)OC(=O)[C@H](CC)NC1=O [Compound 171] | GI50 ([19]; PANC-1 cells): 10 nM; GI50 ([21]; U937 cells): 20 nM; GI50 ([22]; lncap cells): 50 nM
61 | 24 | 40 | 40 | 26 | 40 | 58 | 38 | 90 | 70 | 35 | 67 | 31 | 22 | 40 | 37 | 90 | 46 | 36 | 23 | C/C=C1\NC(=O)c2cc(SC)cc(n2)CNC(=O)C[C@@H](/C=C/CCSC(=O)CCCCCC)OC(=O)[C@H](C(C)C)NC1=O [Compound 151] | GI50 ([19]; PANC-1 cells): 40 nM; GI50 ([21]; U937 cells): 40 nM; GI50 ([22]; lncap cells): 70 nM
